From PMC4883017 (Molecular pharmaceutics, 2015)

Key:
HepG2 cells = settings: human, 10 days, 30 μg/mL
[1] = Pharmacokinetics after i.v. injection; assay type: in vivo; settings: plasma, Balb/c mice, means ± SD
HIV-1ADA [2] = assay: Antiviral activity in vivo, humanized PBL-NSG mouse model of HIV-1 infection; set-up: species or system hu-PBL NSG mice; settings: three i.v. injections over 15 days, Day 15
[3] = cited from earlier work
HIV-1ADA [4] = assay: Reverse transcriptase inhibition in HIV-1 infected MDM; assay type: cell-based; settings: total NRTI concentration 4 μg/mL, Day 10

SMILES: Cc1cn([C@H]2C[C@H](N=[N+]=[N-])[C@@H](CO)O2)c(=O)[nH]c1=O [AZT, Zidovudine]
- Drop of the mtDNA amount (HepG2 cells): 60%
- AUC 0-τ [1]: 22896 ± 85 ng·h/mL
- AUC 0-∞ [1]: 88404 ± 786 ng·h/mL
- CL [1]: 3.81 ± 0.17 mL/h
- Reduction of the virus level per lymphocyte (p24/CD45) (HIV-1ADA [2]): three-fold reduction
- Administered drug removed with urine [3]: more than 90%
- 10-fold virus inhibition in the infected MDM at fixed concentration (HIV-1ADA [4]): achieved only after the treatment with nanodrugs
